Earlier results as cited in EP0547334A1, “Combination of calcium antagonists with cholinesterase inhibitors for the treatment of senile demention” (priority 1991, dated 1993).

Test system: Ratten
Settings: Metrifonat 1 mg/kg alone, oral, rats; literature statement (Schmidt, de Jonge 1991)

COP(=O)(OC)C(O)C(Cl)(Cl)Cl (stereo not shown) [Metrifonat]
Wirkung: keine Wirkung
